The subject of experiment [1] is Smad2/Smad3 phosphorylation. Briefly: Phospho-Smad2/3 Inhibition Assay (western blot), Panc-1. Type of experiment: cell-based, human. Conditions: at 10 μM, Panc-1 pancreatic cancer cell line; starred symbols = activation. The method in brief: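 Western blotting of lysates (15-50 μg protein) read phosphorylation of Smad2 Ser465/467 and Smad3 Ser423/425. Before lysis, Panc-1 cells got 1 h of 10 ng/ml TGF-b1 following 3 h compound exposure at 37° C (10 μM final, or serial dilutions for IC50, 0.3% DMSO) after overnight 0.5% FBS starvation.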

Experiment [2] relates to IL6. Briefly: IL-6 Quantification Assay (ELISA), LPS-stimulated RAW 264.7. Type of experiment: cell-based. Further details: inhibition: dose or concentration left out as unconfirmed. The conditions noted are these: Mus musculus, RAW264.7; read-out: IL-6: % inh. (In general: In an ELISA, binding on a coated surface is turned into a signal by an enzyme label.)
In experiment [3] the test system is TNF-alpha. Briefly: TNF-alpha Quantification Assay (ELISA), LPS-stimulated RAW 264.7. Type of experiment: cell-based. Conditions: Mus musculus, RAW264.7; at 10 μM; read-out: TNFα: % inh.
Experiment [4] deals with MiaPaca-2 (expressing KRAS G12C mutant). Briefly: Proliferation Assay (Cell Viability Assay). The experiment is classed as cell-based. The conditions noted are these: Homo sapiens, MIA PaCa-2. A digest of the protocol: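 After 2–4 days' exposure at 37 °C, 5% CO2 to a single 10 μM final concentration or a dilution series (IC50), percent proliferation inhibition was derived from CellTiter 96 Aqueous One viability readings. The medium contained 0.3% DMSO and 10% FBS. KRAS G12C MiaPaca-2 cells were plated at 2000–5000/well the day before.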

Setting [5] is: read-out: Proliferation in MiaPaca-2: IC50.
The mark [6] stands for this setting: Proliferation assay, MiaPaca-2, read-out: MiaPaca-2 IC50 (nM) Pancreatic.

Read-outs that look alike come from different tables or passages of the source.

Take `COc1cccc(-c2cn3nc(-c4nccn4C)nc(N[C@@H]4CC[C@H]4OC)c3c2-c2ccccc2)c1C` (racemic) [Compound 272, rac 6-(3-Methoxy-2-methylphenyl)-N-((1R,2R)-2-methoxycyclobutyl)-2-(1-methyl-1H-imidazol-2-yl)-5-phenylpyrrolo[2,1-f][1,2,4]triazin-4-amine]: the “% inh of Smad2/3 phosphorylation in Panc-1” value (“% inh” for short) in experiment [1] is reported as “D (D = 76-100% inhibition)”. In experiment [2], the inhibition lay within 75 to 100%. Moreover, in experiment [3], the inhibition at 10 µM is 75 to 100%. In addition, the IC50 in experiment [4] (setting [5]) was over 1000 nM.
In the case of `Cc1c(-c2ccn(C)n2)cn2nc(-c3nccn3C)nc(Nc3cc(-n4ccnc4C)ccn3)c12` [Compound 246, 5-Methyl-N-(4-(2-methyl-1H-imidazol-1-yl)pyridin-2-yl)-2-(1-methyl-1H-imidazol-2-yl)-6-(1-methyl-1H-pyrazol-3-yl)pyrrolo[2,1-f][1,2,4]triazin-4-amine], the “% inh” value in experiment [1] is reported as “C* (C* = 46-75% activation)”. Also, in experiment [2], the inhibition fell in the range of 25 to 49%. Moreover, the inhibition at 10 µM in experiment [3] was found to be 0%. Moreover, the IC50 in experiment [4] (setting [5]) was in the range of 150 to 500 nM.
In the same order, the values of `COCCO[C@H]1C[C@H](Nc2nc(-c3nccn3C)nn3cc(-c4cccc(OC)c4F)c(-c4ccccc4)c23)C1` [Compound 44, 6-(2-Fluoro-3-methoxyphenyl)-N-((1r,3r)-3-(2-methoxyethoxy)cyclobutyl)-2-(1-methyl-1H-imidazol-2-yl)-5-phenylpyrrolo[2,1-f][1,2,4]triazin-4-amine] are “D (D = 76-100% inhibition)”, 25 to 49%, 1 to 24% and over 1000 nM.
For `COc1cnc(Nc2nc(-c3nccn3C)nn3cc(-c4ccn(C(C)C)n4)c(C)c23)nc1` [Compound 56, 6-(1-Isopropyl-1H-pyrazol-3-yl)-N-(5-methoxypyrimidin-2-yl)-5-methyl-2-(1-methyl-1H-imidazol-2-yl)pyrrolo[2,1-f][1,2,4]triazin-4-amine], in that order: “D* (D* = 76-100% activation)”, 25 to 49%, 1 to 24% and 150 to 500 nM.
In the same order, the values of `COCCNc1nc(-c2nccn2C)nn2cc(-c3cccc(OC)c3Cl)c(-c3ccccc3)c12` [Compound 29, 6-(2-Chloro-3-methoxyphenyl)-N-(2-methoxyethyl)-2-(1-methyl-1H-imidazol-2-yl)-5-phenylpyrrolo[2,1-f][1,2,4]triazin-4-amine] are “D (D = 76-100% inhibition)”, 75 to 100%, 75 to 100% and 510 to 1000 nM.
For the compound `COc1cccc(-c2cn3nc(-c4nccn4C)nc(O)c3c2-c2ccccc2)c1Cl` [Compound 28, 6-(2-Chloro-3-methoxyphenyl)-2-(1-methyl-1H-imidazol-2-yl)-5-phenylpyrrolo[2,1-f][1,2,4]triazin-4-ol], in experiment [1], the “% inh” value is 0 (0 = 0% inhibition). In addition, in experiment [2], the inhibition is 25 to 49%. Besides, in experiment [3], the inhibition at 10 µM lay within 1 to 24%. Further, the IC50 in experiment [4] (setting [5]) is over 1000 nM.
In the same order, the values of `Cc1c(-c2ccn(C)n2)cn2nc(-c3nccn3C)nc(Nc3cc(-c4ccccc4)[nH]n3)c12` [Compound 263, 5-Methyl-2-(1-methyl-1H-imidazol-2-yl)-6-(1-methyl-1H-pyrazol-3-yl)-N-(5-phenyl-1H-pyrazol-3-yl)pyrrolo[2,1-f][1,2,4]triazin-4-amine] are “C (C = 46-75% inhibition)”, 75 to 100%, 50 to 74% and under 150 nM.
In the same order, the values of `Cc1c(-c2ccn(C(C)C)n2)cn2nc(-c3nccn3C)nc(Nc3nnc(C4CC4)o3)c12` [Compound 67, 5-Cyclopropyl-N-(6-(1-isopropyl-1H-pyrazol-3-yl)-5-methyl-2-(1-methyl-1H-imidazol-2-yl)pyrrolo[2,1-f][1,2,4]triazin-4-yl)-1,3,4-oxadiazol-2-amine] are 0 (0 = 0% inhibition), 75 to 100%, 50 to 74% and over 1000 nM.
Turning to `COc1cncnc1Nc1nc(-c2nccn2C)nn2cc(-c3ccn(C(C)C)n3)c(C)c12` [Compound 73, 6-(1-Isopropyl-1H-pyrazol-3-yl)-N-(5-methoxypyrimidin-4-yl)-5-methyl-2-(1-methyl-1H-imidazol-2-yl)pyrrolo[2,1-f][1,2,4]triazin-4-amine], the “% inh” value in experiment [1] is given as “B* (B* = 26-45% activation)”. Further, in experiment [2], the inhibition lay in the range of 50 to 74%. For the same compound, the inhibition at 10 µM in experiment [3] amounted to 0%. Besides, the IC50 in experiment [4] (setting [5]) is under 150 nM.
For the compound `COc1cc(Nc2nc(-c3nccn3C)nn3cc(-c4ccn(C(C)C)n4)c(C)c23)n[nH]1` [Compound 51, 6-(1-Isopropyl-1H-pyrazol-3-yl)-N-(5-methoxy-1H-pyrazol-3-yl)-5-methyl-2-(1-methyl-1H-imidazol-2-yl)pyrrolo[2,1-f][1,2,4]triazin-4-amine], the “% inh” value in experiment [1] was “D (D = 76-100% inhibition)”. The inhibition in experiment [2] was in the range of 50 to 74%. Further, in experiment [3], the inhibition at 10 µM was in the range of 25 to 49%. In experiment [4] (setting [5]), the IC50 was over 1000 nM.
In the case of `Cc1[nH]nc(Nc2nc(-c3nccn3C)nn3cc(-c4ccn(C)n4)c(C)c23)c1C` [Compound 267, N-(4,5-Dimethyl-1H-pyrazol-3-yl)-5-methyl-2-(1-methyl-1H-imidazol-2-yl)-6-(1-methyl-1H-pyrazol-3-yl)pyrrolo[2,1-f][1,2,4]triazin-4-amine], the “% inh” value in experiment [1] is recorded as “B (B = 26-45% inhibition)”. In addition, the inhibition in experiment [2] lay within 50 to 74%. In experiment [3], the inhibition at 10 µM lay in the range of 1 to 24%. Further, the values for the IC50 in experiment [4] (setting [6]) and in experiment [4] (setting [5]) were 1 to 10 nM and under 150 nM, respectively.
On to `Cn1ccnc1-c1nc(OCCN2CCCC2)c2c(-c3ccccc3)ccn2n1` [Compound 41, 2-(1-Methyl-1H-imidazol-2-yl)-5-phenyl-4-(2-(pyrrolidin-1-yl)ethoxy)pyrrolo[2,1-f][1,2,4]triazine], for which the “% inh” value in experiment [1] is recorded as “A* (A* = 1-25% activation)”. For the same compound, in experiment [2], the inhibition lay within 1 to 24%. The inhibition at 10 µM in experiment [3] is 1 to 24%. The IC50 in experiment [4] (setting [5]) was over 1000 nM.
Take `CO[C@H]1CC[C@@H](Nc2nc(-c3nccn3C)nn3cc(-c4ccn(C(C)C)n4)c(C(C)C)c23)C1` (racemic) [Compound 36, rac 5-Isopropyl-6-(1-isopropyl-1H-pyrazol-3-yl)-N-((1R,3S)-3-methoxycyclopentyl)-2-(1-methyl-1H-imidazol-2-yl)pyrrolo[2,1-f][1,2,4]triazin-4-amine]: the “% inh” value in experiment [1] is listed as “D (D = 76-100% inhibition)”. The inhibition in experiment [2] lay in the range of 50 to 74%. The inhibition at 10 µM in experiment [3] was 1 to 24%. Further, the IC50 in experiment [4] (setting [5]) is over 1000 nM.
As to `Cc1c(-c2ccn(C(C)C)n2)cn2nc(-c3nccn3C)nc(Nc3ccn(C(C)C)n3)c12` [Compound 72, N,6-bis(1-Isopropyl-1H-pyrazol-3-yl)-5-methyl-2-(1-methyl-1H-imidazol-2-yl)pyrrolo[2,1-f][1,2,4]triazin-4-amine], the “% inh” value in experiment [1] was 0 (0 = 0% inhibition). In addition, the inhibition in experiment [2] is 50 to 74%. Further, the inhibition at 10 µM in experiment [3] was 1 to 24%. Besides, the IC50 in experiment [4] (setting [5]) is over 1000 nM.
`COc1cc(Nc2nc(-c3nccn3C)nn3cc(-c4ccn(C)n4)c(C)c23)n[nH]1` [Compound 252, N-(5-Methoxy-1H-pyrazol-3-yl)-5-methyl-2-(1-methyl-1H-imidazol-2-yl)-6-(1-methyl-1H-pyrazol-3-yl)pyrrolo[2,1-f][1,2,4]triazin-4-amine]: the “% inh” value in experiment [1] is on record as “B* (B* = 26-45% activation)”. For the same compound, the inhibition in experiment [2] lay within 1 to 24%. For the same compound, the inhibition at 10 µM in experiment [3] turned out to be 0%. In addition, the IC50 in experiment [4] (setting [6]) was 10 to 50 nM; in experiment [4] (setting [5]), under 150 nM.
Regarding `Cc1c(-c2ccn(C(C)C)n2)cn2nc(-c3nccn3C)nc(Nc3nc(C4CC4)no3)c12` [Compound 70, 3-Cyclopropyl-N-(6-(1-isopropyl-1H-pyrazol-3-yl)-5-methyl-2-(1-methyl-1H-imidazol-2-yl)pyrrolo[2,1-f][1,2,4]triazin-4-yl)-1,2,4-oxadiazol-5-amine], in experiment [1], the “% inh” value is on record as 0 (0 = 0% inhibition). Moreover, the inhibition in experiment [2] lay in the range of 50 to 74%. The inhibition at 10 µM in experiment [3] lay in the range of 1 to 24%. Further, the IC50 in experiment [4] (setting [5]) is over 1000 nM.
For `COc1cc(Nc2nc(-c3nccn3C)nn3cc(-c4cccc(OC)n4)c(C)c23)ncn1` [Compound 65, 6-(6-Methoxypyridin-2-yl)-N-(6-methoxypyrimidin-4-yl)-5-methyl-2-(1-methyl-1H-imidazol-2-yl)pyrrolo[2,1-f][1,2,4]triazin-4-amine], in that order: “A* (A* = 1-25% activation)”, 1 to 24%, 1 to 24% and under 150 nM.

The record behind these values is patent US12459951B2, “Compounds that interact with RAS superfamily proteins for treatment of cancers, inflammatory diseases, rasopathies, and fibrotic disease” (SHY Therapeutics, LLC, priority 2022, dated 2025).
